As a reminder, the AC50 is the midpoint of the concentration-response curve, whichever way the signal moves.

The values that follow come from ChEMBL document CHEMBL1201862, “PubChem BioAssay data set” (2004).

Test [1] has as its target T1, Low molecular weight phosphotyrosine protein phosphatase (Homo sapiens, UniProt P24666).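 Also: Dose-response confirmation assay measuring inhibition of LMPTP enzyme activity by fluorescence intensity read-out.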
T1 sequence (P24666 whole entry): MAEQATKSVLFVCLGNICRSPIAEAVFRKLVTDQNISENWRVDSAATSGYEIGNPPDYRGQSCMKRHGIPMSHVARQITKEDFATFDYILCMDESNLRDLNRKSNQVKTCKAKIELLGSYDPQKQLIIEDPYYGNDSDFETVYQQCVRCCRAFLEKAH
The test is classed as functional. To be noted: read-out: IC50_Mean.

Test [2] concerns the target T2, Voltage-gated N-type calcium channel alpha-1B subunit/Amyloid beta A4 precursor protein-binding family A member 1 (Homo sapiens, UniProt Q00975+Q02410). It counts as protein assay.
In test [3] the target is T2, Voltage-gated N-type calcium channel alpha-1B subunit/Amyloid beta A4 precursor protein-binding family A member 1. The test is classed as protein assay. This is another data set of the same source.
The target in test [4] is T3, Carboxy-terminal domain RNA polymerase II polypeptide A small phosphatase 1 (Homo sapiens, UniProt Q9GZU7).
T3 sequence (Q9GZU7 whole entry): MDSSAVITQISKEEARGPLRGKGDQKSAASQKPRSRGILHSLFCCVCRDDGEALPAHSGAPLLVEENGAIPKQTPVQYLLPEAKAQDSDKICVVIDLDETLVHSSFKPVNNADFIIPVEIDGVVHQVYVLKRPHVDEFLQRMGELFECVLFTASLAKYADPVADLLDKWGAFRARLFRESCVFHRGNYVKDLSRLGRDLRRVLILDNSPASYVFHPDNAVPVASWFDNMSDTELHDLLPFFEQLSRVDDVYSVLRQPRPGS
As to the kind of experiment: CTDSP1 inhibitors, concentration-response, biochemical, absorbance readout, ultra-high-throughput screen actives (AID 540297). The test is classed as functional.

Test [5] concerns the target T4, Tyrosine-protein phosphatase non-receptor type 22 (Homo sapiens, UniProt Q9Y2R2).
T4 sequence (Q9Y2R2 whole entry): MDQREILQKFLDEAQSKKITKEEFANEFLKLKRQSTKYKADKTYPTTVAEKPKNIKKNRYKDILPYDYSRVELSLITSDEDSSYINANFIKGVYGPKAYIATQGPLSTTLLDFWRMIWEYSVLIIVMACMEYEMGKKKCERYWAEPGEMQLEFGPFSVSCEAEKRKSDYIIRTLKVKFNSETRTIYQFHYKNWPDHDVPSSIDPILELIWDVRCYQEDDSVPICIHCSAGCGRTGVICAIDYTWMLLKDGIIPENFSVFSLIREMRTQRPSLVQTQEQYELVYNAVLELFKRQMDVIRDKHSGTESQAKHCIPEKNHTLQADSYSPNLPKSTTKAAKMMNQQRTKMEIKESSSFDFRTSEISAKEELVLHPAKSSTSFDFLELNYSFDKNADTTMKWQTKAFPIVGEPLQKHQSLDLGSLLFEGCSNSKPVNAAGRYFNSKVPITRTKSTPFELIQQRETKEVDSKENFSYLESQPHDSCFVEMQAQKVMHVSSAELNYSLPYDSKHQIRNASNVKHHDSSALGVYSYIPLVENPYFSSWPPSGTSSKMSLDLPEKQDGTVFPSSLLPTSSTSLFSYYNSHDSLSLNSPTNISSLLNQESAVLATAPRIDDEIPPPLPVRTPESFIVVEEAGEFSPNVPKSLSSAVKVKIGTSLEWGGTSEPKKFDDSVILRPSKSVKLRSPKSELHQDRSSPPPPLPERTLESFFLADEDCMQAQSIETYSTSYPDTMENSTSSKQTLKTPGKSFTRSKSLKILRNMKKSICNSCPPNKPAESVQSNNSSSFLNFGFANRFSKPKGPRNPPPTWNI
As to the kind of experiment: PTPN22 enzyme inhibitors – biochemical, fluorescence, LYP catalytic domain, selectivity assay for LMPTP inhibitor project, dose response (AID 652006). It counts as functional. The conditions noted are these: read-out: IC50_Mean.

The nature of test [6]: blockers of CAL PDZ–TMR peptide complex – biochemical, fluorescence polarization, untagged CAL PDZ, cherry-pick, set 2, dose response (AID 602254). It counts as functional.
A further test addresses Protein Wnt-3a (Mus musculus, UniProt P27467). As to the kind of experiment: antagonism of Wnt3a pathway luciferase reporter – Wnt-LIGHT cells, luminescence, selectivity assay for Gli-SUFU antagonist project, dose response (AID 651570).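 Also: Wnt-LIGHT reporter cells stimulated with conditioned medium from Wnt3a-producing cells.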 The test is classed as functional. To be noted: read-out: IC50_Mean. (A reporter such as luciferase makes a cellular process visible.)
A short description of test [7]: general mammalian cell viability loss – inhibitor set, cherry-pick, set 2, cytotoxicity control for miR-122 modulator project, dose response (AID 720697). It counts as functional, cell-based.
Test [8] in a line: HEK-293T viability loss, compound-treated – cell-based, uHTS hits, cytotoxicity control for B/T-cell NF-kB inhibitor project, dose response (AID 489019).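 Also: IC50 reflects cytotoxicity as loss of cell viability.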 The test is classed as functional.
A short description of test [9]: non-specific 3'UTR reporter inhibition in Clone20-Shn3RL – cell-based, Renilla luciferase, cherry-picked, counter-screen for Shn3 inhibitor project, dose response (AID 624133). It counts as functional. On the technique in general: Counterscreens check selectivity or assay interference.
Test [10] can be described thus: microbe, parasite or virus in culture. The test is classed as functional. To be noted: Mycobacterium tuberculosis.
For test [11], the target named is T5, COUP transcription factor 2 (Homo sapiens, UniProt P24468).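 Also: HEK293 cells transiently cotransfected with COUP-TFII expression vector and reporter; luciferase reporter luminescence driven by COUP-TFII from the pX2-168 reporter plasmid.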
T5 sequence (P24468 whole entry): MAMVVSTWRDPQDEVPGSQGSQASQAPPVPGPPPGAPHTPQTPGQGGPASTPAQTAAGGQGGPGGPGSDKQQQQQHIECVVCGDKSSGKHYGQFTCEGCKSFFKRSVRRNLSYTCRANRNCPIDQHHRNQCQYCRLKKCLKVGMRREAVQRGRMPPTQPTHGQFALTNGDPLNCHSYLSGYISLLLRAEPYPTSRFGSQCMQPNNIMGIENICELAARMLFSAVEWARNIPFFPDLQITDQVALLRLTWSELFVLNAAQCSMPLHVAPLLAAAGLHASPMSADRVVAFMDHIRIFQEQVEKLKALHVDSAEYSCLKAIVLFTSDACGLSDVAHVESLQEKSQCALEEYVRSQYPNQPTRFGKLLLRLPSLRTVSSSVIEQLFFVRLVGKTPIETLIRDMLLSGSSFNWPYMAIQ
As to the kind of experiment: Luminescence-based cell-based high throughput dose response assay to identify inhibitors of COUP-TFII (NR2F2). It counts as functional.

Test [12] in a line: HIV-1 AD8 envelope cell-cell fusion blockers – cherry-pick, dose response (AID 652062).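 Also: luciferase signal from cell-cell fusion driven by HIV-1 clade B AD8 Env; potency is for inhibitors of fusion seen as a drop in luminescence.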 It counts as functional, cell-based.
Test [13] can be described thus: loss of viability in HepG2 cells – cell-based, CellTiter-Glo, cherry-picked, cytotoxicity control for Shn3 inhibitor project, dose response (AID 624134). It counts as functional. In general terms: In ATP-based viability assays light output follows the ATP content of the culture.
A further test relates to INS1. As to the kind of experiment: INS-1E survival protection against cytokine death – cell-based, luminescence, retest, dose response (AID 449756).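 Also: cell death triggered by IL-1 beta plus TNF-alpha plus IFN-gamma mixture; protective hits raise ATP signal compared with cytokine alone wells.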 It counts as functional. The conditions noted are these: Rattus norvegicus.
The nature of test [14]: reduction of Shn3 3'UTR-driven luciferase in osteoblasts – cell-based, Clone20 osteoblasts, firefly luciferase, cherry-picked, dose response (AID 624132).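 Also: firefly luciferase luminescence from reporter carrying the Shn3 3'UTR in osteoblasts.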 It counts as functional.
The nature of test [15]: general mammalian cell viability loss – activator set, cherry-pick, cytotoxicity control for miR-122 modulator project, dose response (AID 720690).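 Also: HEK293T human cells scored for general mammalian cytotoxicity.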 It counts as functional, cell-based.
The subject of the next test is Jurkat. As to the kind of experiment: blockers of NF-kB activation in T cells – Jurkat, luciferase reporter, luminescence, B- and T-cell, dose response (AID 489004).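 Also: NF-kB luciferase reporter Jurkat cells stimulated with PMA plus ionomycin.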 It counts as functional, cell-based. To be noted: Homo sapiens.
The target in test [16] is Adenosylmethionine-8-amino-7-oxononanoate aminotransferase (Mycobacterium tuberculosis, UniProt P9WQ81). As to the kind of experiment: Mycobacterium tuberculosis BioA enzyme inhibitor Measured in Biochemical System Using Plate Reader - 2163-02_Inhibitor_Dose_CherryPick_Activity. It counts as functional, Mycobacterium tuberculosis UT205.
Test [17] is described as follows: cAMP pathway inhibition in counterscreen cell line – TR-FRET cAMP detection, counter-screen for MC4R biased antagonist project, dose response (AID 602305).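 Also: U2OS cells stimulated with forskolin near its EC80 as the cAMP inducer; potency is for inhibition of forskolin-stimulated cAMP signaling.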 It counts as functional, cell-based.
Another test deals with Melanocortin receptor 4 (Homo sapiens, UniProt P32245). As to the kind of experiment: inhibitors of MC4R cAMP signaling – cell-based, TR-FRET, biased antagonists, dose response (AID 602298).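 Also: antagonist potency against agonist-stimulated cAMP production.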 It counts as functional.
Test [18] is described as follows: viability of uninfected HEp-2 cells – cell-based, HTS, cytotoxicity control for RSV inhibitor project, dose response (AID 2410). It counts as functional. To be noted: human respiratory syncytial virus.
For another test, the target named is Interleukin-8 (Homo sapiens, UniProt P10145). As to the kind of experiment: Dose Response confirmation of uHTS small molecule hits for cystic fibrosis induced NFkb Inhibitors in a PAF-induced IL8 counterscreen. The conditions noted are these: read-out: IC50_Mean. It counts as functional.
Chain of Interleukin-8 (P10145 whole entry): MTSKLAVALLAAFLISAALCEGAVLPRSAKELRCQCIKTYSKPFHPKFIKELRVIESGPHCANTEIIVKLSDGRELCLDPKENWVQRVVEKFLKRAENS
Test [19] addresses T6, ATP-dependent translocase ABCB1 (Homo sapiens, UniProt P08183). As to the kind of experiment: P-gp JC-1 efflux blockade concentration-response – Jurkat-DNR cells, flow cytometry, set 2, dose response (AID 504569).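 Also: potency of pump inhibitors that raise cellular JC-1 green fluorescence up to the nicardipine level.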 The conditions noted are these: read-out: EC50_MICROM_. The test is classed as functional.
The target in test [20] is T6, ATP-dependent translocase ABCB1. As to the kind of experiment: inhibition of BCRP-mediated JC-1 efflux – Ig-MXP3 cells, flow cytometry, set 2, dose response (AID 504566).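 Also: flow cytometry median green fluorescence of retained JC-1 dye; potency of efflux pump inhibition measured as rising substrate retention.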 It counts as functional. To be noted: read-out: EC50_MICROM_.

Calls of active or inactive are those of the source.

T6 sequence (P08183 whole entry): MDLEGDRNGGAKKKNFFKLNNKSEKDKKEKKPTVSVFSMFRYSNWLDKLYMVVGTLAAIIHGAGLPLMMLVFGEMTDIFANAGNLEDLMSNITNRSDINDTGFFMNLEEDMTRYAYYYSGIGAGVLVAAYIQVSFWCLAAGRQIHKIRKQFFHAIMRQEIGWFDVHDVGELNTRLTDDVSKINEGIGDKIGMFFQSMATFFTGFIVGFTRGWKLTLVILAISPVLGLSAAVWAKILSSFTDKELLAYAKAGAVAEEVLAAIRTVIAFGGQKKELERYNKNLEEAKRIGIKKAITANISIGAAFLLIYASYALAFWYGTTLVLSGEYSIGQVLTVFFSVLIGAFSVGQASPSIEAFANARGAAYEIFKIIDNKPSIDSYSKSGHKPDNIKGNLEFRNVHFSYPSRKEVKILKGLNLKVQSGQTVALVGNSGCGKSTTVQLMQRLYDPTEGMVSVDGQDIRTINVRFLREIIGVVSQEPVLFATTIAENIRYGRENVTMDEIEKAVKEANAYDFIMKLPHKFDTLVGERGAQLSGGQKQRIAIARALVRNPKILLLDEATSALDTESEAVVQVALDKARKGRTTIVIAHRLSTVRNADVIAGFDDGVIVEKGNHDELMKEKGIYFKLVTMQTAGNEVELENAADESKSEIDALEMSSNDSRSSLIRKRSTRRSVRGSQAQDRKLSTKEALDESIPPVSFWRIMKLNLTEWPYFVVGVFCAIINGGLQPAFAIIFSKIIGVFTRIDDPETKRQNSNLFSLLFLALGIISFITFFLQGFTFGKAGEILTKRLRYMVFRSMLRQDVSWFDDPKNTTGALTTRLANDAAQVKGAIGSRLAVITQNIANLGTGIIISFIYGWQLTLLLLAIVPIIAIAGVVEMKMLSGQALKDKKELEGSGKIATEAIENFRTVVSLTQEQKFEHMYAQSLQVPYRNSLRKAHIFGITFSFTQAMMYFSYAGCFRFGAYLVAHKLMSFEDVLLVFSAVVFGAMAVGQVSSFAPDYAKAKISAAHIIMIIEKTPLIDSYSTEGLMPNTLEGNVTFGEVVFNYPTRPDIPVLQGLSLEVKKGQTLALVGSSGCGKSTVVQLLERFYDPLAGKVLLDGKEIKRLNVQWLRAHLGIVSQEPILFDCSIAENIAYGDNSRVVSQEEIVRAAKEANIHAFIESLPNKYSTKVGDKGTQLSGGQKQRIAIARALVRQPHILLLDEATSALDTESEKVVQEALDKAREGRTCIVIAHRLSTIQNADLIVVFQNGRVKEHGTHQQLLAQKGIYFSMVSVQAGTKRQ
T2 sequence (Q00975 whole entry): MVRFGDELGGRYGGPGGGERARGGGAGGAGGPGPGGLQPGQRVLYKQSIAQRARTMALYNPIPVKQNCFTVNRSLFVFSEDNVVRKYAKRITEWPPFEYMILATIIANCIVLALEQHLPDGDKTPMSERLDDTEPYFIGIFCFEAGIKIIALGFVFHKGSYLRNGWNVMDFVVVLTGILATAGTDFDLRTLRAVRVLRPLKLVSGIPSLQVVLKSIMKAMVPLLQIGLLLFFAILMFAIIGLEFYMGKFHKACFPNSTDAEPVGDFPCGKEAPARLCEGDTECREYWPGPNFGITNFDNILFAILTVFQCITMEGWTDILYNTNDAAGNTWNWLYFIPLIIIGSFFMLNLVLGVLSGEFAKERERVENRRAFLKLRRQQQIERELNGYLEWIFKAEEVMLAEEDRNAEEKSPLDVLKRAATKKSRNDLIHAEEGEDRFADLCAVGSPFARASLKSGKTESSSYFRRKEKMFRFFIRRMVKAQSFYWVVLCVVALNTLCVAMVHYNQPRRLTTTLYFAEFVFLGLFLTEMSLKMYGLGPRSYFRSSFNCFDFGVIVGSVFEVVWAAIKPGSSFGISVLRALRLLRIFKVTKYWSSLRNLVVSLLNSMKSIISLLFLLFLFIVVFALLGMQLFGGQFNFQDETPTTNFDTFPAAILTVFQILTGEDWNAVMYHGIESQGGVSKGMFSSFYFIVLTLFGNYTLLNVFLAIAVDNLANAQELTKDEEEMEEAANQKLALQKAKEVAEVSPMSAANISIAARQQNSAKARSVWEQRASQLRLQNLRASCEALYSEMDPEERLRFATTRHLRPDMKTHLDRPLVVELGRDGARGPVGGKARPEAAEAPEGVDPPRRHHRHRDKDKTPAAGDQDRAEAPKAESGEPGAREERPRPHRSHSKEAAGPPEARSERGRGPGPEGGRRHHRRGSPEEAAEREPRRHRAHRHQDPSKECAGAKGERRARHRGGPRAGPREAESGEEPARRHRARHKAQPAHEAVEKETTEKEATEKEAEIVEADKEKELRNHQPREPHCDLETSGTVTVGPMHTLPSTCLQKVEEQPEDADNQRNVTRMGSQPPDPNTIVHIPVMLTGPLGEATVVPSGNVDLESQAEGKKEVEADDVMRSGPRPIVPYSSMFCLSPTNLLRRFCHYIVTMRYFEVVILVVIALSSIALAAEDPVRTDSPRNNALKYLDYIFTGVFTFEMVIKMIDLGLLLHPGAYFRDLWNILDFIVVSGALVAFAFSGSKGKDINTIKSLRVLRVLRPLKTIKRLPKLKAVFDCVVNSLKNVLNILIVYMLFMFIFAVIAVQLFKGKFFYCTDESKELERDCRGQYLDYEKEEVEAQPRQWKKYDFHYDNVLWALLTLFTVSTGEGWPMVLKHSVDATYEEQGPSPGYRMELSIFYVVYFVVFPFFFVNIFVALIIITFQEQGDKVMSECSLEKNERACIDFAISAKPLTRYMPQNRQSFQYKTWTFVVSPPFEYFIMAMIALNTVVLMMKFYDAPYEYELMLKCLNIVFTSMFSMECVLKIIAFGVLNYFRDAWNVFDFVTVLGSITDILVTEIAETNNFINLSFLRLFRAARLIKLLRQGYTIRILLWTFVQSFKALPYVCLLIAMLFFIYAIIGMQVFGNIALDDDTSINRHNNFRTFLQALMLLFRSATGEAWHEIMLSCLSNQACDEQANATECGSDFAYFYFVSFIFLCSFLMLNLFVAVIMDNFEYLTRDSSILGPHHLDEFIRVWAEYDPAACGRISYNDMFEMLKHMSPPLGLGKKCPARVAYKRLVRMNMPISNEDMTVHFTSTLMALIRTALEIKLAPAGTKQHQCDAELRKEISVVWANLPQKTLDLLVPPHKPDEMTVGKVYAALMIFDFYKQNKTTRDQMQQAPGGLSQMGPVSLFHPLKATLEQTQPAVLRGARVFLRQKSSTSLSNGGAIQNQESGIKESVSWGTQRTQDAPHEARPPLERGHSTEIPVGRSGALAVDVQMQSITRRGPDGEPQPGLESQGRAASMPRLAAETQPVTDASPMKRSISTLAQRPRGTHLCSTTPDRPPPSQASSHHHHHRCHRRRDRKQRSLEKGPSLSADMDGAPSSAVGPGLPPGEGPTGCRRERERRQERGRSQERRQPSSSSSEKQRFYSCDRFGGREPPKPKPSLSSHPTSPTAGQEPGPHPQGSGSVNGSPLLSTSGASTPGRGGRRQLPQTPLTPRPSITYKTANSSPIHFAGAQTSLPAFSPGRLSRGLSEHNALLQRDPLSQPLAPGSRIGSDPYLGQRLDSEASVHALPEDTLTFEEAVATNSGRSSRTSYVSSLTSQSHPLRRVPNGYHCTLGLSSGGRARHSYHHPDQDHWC
T2 sequence (Q02410 whole entry): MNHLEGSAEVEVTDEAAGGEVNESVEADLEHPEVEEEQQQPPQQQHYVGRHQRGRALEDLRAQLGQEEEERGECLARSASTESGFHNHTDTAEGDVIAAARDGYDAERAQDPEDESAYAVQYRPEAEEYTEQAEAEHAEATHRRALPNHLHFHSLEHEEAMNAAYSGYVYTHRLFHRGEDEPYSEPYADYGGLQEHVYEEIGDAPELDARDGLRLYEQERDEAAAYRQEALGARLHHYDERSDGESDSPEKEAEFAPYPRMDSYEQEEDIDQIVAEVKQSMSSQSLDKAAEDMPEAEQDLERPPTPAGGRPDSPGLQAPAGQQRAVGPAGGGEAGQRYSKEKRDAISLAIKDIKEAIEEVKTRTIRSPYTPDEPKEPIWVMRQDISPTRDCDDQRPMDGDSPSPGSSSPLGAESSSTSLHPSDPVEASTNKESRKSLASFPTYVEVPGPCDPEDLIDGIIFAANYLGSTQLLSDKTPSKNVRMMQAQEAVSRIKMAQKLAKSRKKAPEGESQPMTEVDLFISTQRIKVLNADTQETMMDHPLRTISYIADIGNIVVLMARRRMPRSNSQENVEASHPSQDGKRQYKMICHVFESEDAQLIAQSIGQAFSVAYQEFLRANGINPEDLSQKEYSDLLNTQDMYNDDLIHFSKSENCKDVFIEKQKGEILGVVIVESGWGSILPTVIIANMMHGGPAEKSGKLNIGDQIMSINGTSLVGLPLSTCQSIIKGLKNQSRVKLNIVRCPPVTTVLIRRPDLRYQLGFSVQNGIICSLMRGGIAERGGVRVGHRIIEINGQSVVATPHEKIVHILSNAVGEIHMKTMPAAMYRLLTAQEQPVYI
Chain of Protein Wnt-3a (P27467 whole entry): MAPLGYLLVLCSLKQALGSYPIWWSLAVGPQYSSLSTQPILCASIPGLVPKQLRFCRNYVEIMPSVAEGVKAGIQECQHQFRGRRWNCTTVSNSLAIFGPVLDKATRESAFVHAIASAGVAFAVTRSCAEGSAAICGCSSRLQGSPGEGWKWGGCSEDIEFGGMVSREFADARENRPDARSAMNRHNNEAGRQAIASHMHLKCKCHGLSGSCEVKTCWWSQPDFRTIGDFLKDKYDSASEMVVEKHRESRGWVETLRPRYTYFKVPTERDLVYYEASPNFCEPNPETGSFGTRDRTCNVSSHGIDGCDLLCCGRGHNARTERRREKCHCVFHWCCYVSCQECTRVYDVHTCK

With `NS(=O)(=O)c1ccc(CNC(=O)Cc2cccs2)cc1`, the IC50 in test [1] was 20.7 µM (inactive); in test [2], 3.86 µM (active); in test [3], > 50 µM (inactive); in [4] it was 4.18 µM (active); in test [5], 56.1 µM (inactive).
Consider `CC(C)(C)c1ccc(/C=N/N2CCN(c3ccccn3)CC2)cc1`, for which the AC50 in test [6] is 91.5 µM (active).
For the compound `Cc1ccc(OCCN2CCN(c3ncnc4sc(C)c(C)c34)CC2)cc1`, the IC50 on Protein Wnt-3a was 0.282 µM (active); in [8], > 80 µM (inactive); in [11], 4.98 µM (active); in the test with Jurkat, > 80 µM (inactive). The AC50 in [7] was 13.6 µM (active); in [9], 2.05 µM (active); in test [12], 1.78 µM (active); in test [13], 1.5 µM (active); in the test on INS1, 2.36 µM (active); in [14], 0.754 µM (active). Further, the AC50 in [15] was 33.6 µM (active). Besides, the CC50 in test [10] was > 40 µM (active).
Turning to `Cc1cccc(C2c3[nH]c4ccccc4c3CCN2C(=O)CN2CCOC2=O)n1` (stereo unspecified), the AC50 in test [16] was 7.05 µM (active).
For the compound `COc1cc2c(cc1NC(=O)CN1C(=O)NC3(CCc4ccccc43)C1=O)oc1ccccc12` (stereo unspecified), the IC50 (in test [17]; at Melanocortin receptor 4) was > 64.6 µM (inactive) throughout. Besides, in [10], the CC50 is 23.6 µM (active).
On to `CC(C)C[C@H](CO)Nc1nc(Nc2cccc(Cl)c2)c2ncn(C(C)C)c2n1`, for which the CC50 in test [18] was 44.4 µM (active). Further, at Interleukin-8, the IC50 was 5.97 µM (active).
In the case of `COc1ccccc1C(=O)N1CCN(c2cc(-c3ccccc3)nc3cc(-c4cccc(Cl)c4)nn23)CC1`, the EC50 was 4.13 µM (active) in [19] and 2.97 µM (active) in [20].
